Here are results for ten compounds from patent US20230139171A1 (SITA Information Networking Computing UK Limited, priority 2019, published 2023).

Common to all, as to format: cell-based
The target of experiment [1] is T1, human TLR7 (Homo sapiens, UniProt Q9NYK1).
T1 construct: host or cells: HEK-Blue cells
T1 sequence (Q9NYK1 27-1049): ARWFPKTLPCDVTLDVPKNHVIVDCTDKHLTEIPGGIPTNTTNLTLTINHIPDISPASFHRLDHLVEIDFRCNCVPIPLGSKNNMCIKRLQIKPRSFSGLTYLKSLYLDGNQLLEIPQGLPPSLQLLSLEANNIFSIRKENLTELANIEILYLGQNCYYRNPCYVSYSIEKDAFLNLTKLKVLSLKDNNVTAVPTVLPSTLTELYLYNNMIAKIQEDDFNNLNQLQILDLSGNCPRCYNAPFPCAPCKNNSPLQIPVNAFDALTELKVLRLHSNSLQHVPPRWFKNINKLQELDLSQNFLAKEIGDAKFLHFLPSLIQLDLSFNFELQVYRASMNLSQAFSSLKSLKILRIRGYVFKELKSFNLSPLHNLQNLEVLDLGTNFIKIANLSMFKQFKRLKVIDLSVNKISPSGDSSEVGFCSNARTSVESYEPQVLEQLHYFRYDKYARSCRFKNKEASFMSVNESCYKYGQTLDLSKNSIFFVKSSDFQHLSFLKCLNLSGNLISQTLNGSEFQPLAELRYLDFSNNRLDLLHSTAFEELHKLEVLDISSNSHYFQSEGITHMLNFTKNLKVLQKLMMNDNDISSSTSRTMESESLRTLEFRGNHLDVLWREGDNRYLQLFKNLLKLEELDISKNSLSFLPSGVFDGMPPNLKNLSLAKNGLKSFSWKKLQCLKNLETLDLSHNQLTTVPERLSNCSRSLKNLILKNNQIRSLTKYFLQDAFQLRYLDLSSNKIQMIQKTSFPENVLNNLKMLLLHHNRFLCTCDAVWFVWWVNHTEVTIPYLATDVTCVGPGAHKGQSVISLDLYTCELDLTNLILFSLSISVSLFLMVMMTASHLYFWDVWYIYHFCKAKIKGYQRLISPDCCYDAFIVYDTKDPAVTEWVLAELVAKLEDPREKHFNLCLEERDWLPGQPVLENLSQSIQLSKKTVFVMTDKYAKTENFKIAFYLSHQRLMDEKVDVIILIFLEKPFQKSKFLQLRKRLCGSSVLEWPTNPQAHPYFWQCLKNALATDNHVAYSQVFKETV
In words: TLR7 inhibition reporter assay (HEK-Blue cells, SEAP reporter, gardiquimod stimulation). To be noted: HEK-Blue cells overexpressing human TLR7, SEAP reporter, gardiquimod 7.5 μM; read-out: TLR7 IC50. The method in brief: (§1)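 HEK-Blue cells overexpressing human TLR7, TLR8 or TLR9 carry a SEAP reporter driven by NF-κB/AP-1 sites. Compounds (0.05 nM–50 μM) were preincubated 30 min at room temperature, then cells were stimulated with gardiquimod 7.5 μM (TLR7), R848 15.9 μM (TLR8) or ODN2006 5 nM (TLR9) for 22 h at 37 °C.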
For orientation: A reporter such as luciferase makes a cellular process visible.

Experiment [2] deals with T2, human TLR8 (Homo sapiens, UniProt Q9NR97).
T2 construct: host or cells: HEK-Blue cells
T2 sequence (Q9NR97 27-1041): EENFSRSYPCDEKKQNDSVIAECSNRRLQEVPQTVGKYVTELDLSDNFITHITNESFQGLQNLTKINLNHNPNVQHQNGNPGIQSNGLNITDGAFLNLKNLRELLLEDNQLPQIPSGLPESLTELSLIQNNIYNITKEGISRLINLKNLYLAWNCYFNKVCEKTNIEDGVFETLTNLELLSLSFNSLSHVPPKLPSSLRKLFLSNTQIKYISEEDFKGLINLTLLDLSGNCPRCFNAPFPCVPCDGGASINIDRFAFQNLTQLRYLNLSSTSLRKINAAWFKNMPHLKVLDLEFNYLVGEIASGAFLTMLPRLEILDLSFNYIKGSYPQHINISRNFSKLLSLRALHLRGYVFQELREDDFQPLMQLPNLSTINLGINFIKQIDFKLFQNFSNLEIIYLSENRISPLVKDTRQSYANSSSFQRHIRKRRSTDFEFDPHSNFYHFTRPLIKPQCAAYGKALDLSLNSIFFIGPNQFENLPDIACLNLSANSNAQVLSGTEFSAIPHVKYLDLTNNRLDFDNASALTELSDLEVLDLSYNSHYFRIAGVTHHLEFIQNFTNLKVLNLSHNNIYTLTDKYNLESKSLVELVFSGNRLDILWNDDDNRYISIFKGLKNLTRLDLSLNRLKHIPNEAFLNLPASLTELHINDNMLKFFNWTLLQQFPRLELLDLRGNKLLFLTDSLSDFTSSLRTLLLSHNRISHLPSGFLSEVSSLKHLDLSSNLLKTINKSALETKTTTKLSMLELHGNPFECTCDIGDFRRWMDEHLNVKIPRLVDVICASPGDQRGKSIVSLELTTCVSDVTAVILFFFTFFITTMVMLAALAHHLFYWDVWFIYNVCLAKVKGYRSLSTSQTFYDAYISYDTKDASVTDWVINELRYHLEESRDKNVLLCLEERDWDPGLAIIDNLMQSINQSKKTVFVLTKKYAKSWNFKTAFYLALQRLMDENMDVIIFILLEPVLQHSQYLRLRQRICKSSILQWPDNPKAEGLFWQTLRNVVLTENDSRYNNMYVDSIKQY
Description: TLR8 inhibition reporter assay (HEK-Blue cells, SEAP reporter, R848 stimulation). To be noted: HEK-Blue cells overexpressing human TLR8, SEAP reporter, R848 15.9 μM; read-out: TLR8 IC50. The method in brief:
as §1

The target in experiment [3] is T3, human TLR9 (Homo sapiens, UniProt Q9NR96).
T3 construct: host or cells: HEK-Blue cells
T3 sequence (Q9NR96 26-1032): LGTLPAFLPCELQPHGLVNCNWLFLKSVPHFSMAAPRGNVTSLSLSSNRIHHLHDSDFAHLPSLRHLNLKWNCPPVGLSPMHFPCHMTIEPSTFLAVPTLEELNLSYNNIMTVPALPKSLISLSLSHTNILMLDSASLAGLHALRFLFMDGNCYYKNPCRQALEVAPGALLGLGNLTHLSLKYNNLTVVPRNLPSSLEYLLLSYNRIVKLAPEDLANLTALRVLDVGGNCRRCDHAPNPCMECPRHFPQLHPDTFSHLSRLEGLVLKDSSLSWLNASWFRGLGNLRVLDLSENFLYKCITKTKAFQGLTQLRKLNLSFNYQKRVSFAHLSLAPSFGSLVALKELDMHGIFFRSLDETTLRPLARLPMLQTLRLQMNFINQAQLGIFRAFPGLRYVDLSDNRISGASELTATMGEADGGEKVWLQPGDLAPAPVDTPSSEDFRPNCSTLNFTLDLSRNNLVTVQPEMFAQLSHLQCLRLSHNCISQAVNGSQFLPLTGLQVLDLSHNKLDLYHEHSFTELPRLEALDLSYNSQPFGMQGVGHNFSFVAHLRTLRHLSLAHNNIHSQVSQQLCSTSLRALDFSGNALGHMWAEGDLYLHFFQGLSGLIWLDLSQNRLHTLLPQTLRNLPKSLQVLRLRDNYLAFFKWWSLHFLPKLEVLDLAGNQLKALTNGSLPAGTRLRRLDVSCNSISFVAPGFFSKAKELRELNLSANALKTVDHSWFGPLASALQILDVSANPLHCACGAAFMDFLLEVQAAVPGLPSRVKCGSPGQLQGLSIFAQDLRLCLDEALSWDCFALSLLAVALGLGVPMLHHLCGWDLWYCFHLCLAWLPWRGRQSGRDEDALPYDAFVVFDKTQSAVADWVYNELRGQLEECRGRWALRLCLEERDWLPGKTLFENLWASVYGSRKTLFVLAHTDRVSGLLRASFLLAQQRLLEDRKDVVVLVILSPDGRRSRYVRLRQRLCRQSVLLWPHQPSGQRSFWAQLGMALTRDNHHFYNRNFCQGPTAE
In words: TLR9 inhibition reporter assay (HEK-Blue cells, SEAP reporter, ODN2006 stimulation). To be noted: HEK-Blue cells overexpressing human TLR9, SEAP reporter, ODN2006 5 nM. The method in brief:
as §1

Usually IC50 stands for the midpoint of a concentration-inhibition curve.

Regarding `Cc1c(-c2[nH]c3sc(C4CCC(NC5CCOCC5)CC4)nc3c2C(C)C)cn(C)c(=O)c1C` (single isomer, unassigned) [Example 250, 5-(6-isopropyl-2-(4-((tetrahydro-2H-pyran-4-yl)amino)cyclohexyl)-4H-pyrrolo[3,2-d]thiazol-5-yl)-1,3,4-trimethylpyridin-2(1H)-one], the IC50 is 46.8 nM in experiment [1], 43.6 nM in experiment [2] and 43300 nM in experiment [3].
For `Cc1c(-c2[nH]c3sc(C4CCC(NCC(C)(C)O)CC4)nc3c2C(C)C)cn(C)c(=O)c1C` (single isomer, unassigned) [Example 251, 5-(2-(4-((2-hydroxy-2-methylpropyl)amino)cyclohexyl)-6-isopropyl-4H-pyrrolo[3,2-d]thiazol-5-yl)-1,3,4-trimethylpyridin-2(1H)-one] the same measures were 10.6 nM, 2.68 nM and 45300 nM.
`Cc1c(-c2[nH]c3sc(C4CCC(NCC(C)(C)O)CC4)nc3c2C(C)C)cn(C)c(=O)c1C` (single isomer, unassigned) [Example 252, 5-(2-(4-((2-hydroxy-2-methylpropyl)amino)cyclohexyl)-6-isopropyl-4H-pyrrolo[3,2-d]thiazol-5-yl)-1,3,4-trimethylpyridin-2(1H)-one]: the concentration for half-maximal inhibition (IC50) in experiment [1] is 67.9 nM; in experiment [2], 35.8 nM; in experiment [3], over 50000 nM.
As to `Cc1c(-c2[nH]c3sc(C4CCC(NC(C)C)CC4)nc3c2C(C)C)cn(C)c(=O)c1C` (single isomer, unassigned) [Example 253, 5-(6-isopropyl-2-(4-(isopropylamino)cyclohexyl)-4H-pyrrolo[3,2-d]thiazol-5-yl)-1,3,4-trimethylpyridin-2(1H)-one], the concentration for half-maximal inhibition (IC50) in experiment [1] turned out to be 4.7 nM; in experiment [2], 3.01 nM; in experiment [3], 23000 nM.
For the compound `Cc1c(-c2[nH]c3sc(C4CCC(NC(C)C)CC4)nc3c2C(C)C)cn(C)c(=O)c1C` (single isomer, unassigned) [Example 254, 5-(6-isopropyl-2-(4-(isopropylamino)cyclohexyl)-4H-pyrrolo[3,2-d]thiazol-5-yl)-1,3,4-trimethylpyridin-2(1H)-one], the IC50 came to 26.8 nM in experiment [1], 22.7 nM in experiment [2] and 29200 nM in experiment [3].
For `Cc1c(-c2[nH]c3sc(C4CCC(N5CCC5)CC4)nc3c2C(C)C)cn(C)c(=O)c1C` (single isomer, unassigned) [Example 255, 5-(2-(4-(azetidin-1-yl)cyclohexyl)-6-isopropyl-4H-pyrrolo[3,2-d]thiazol-5-yl)-1,3,4-trimethylpyridin-2(1H)-one] the same measures were 6.86 nM, 4.88 nM and 15100 nM.
Take `Cc1c(-c2[nH]c3sc(C4CCC(N5CCC5)CC4)nc3c2C(C)C)cn(C)c(=O)c1C` (single isomer, unassigned) [Example 256, 5-(2-(4-(azetidin-1-yl)cyclohexyl)-6-isopropyl-4H-pyrrolo[3,2-d]thiazol-5-yl)-1,3,4-trimethylpyridin-2(1H)-one]: the IC50 was 34.3 nM in experiment [1], 31.3 nM in experiment [2] and 16900 nM in experiment [3].
With `Cc1c(-c2[nH]c3sc(C4CCC(NCC5(S(C)(=O)=O)CC5)CC4)nc3c2C(C)C)cn(C)c(=O)c1C` (single isomer, unassigned) [Example 257, 5-(6-isopropyl-2-(4-(((1-(methylsulfonyl)cyclopropyl)methyl)amino)cyclohexyl)-4H-pyrrolo[3,2-d]thiazol-5-yl)-1,3,4-trimethylpyridin-2(1H)-one], the IC50 was found to be 13.6 nM in experiment [1], 0.86 nM in experiment [2] and 34900 nM in experiment [3].
For `Cc1c(-c2[nH]c3sc(C4CCC(NCC5(S(C)(=O)=O)CC5)CC4)nc3c2C(C)C)cn(C)c(=O)c1C` (single isomer, unassigned) [Example 258, 5-(6-isopropyl-2-(4-(((1-(methylsulfonyl)cyclopropyl)methyl)amino)cyclohexyl)-4H-pyrrolo[3,2-d]thiazol-5-yl)-1,3,4-trimethylpyridin-2(1H)-one] the same measures were 36.5 nM, 9.16 nM and 29400 nM.
For `Cc1c(-c2[nH]c3sc(C4CCC(N5CCNC(=O)C5)CC4)nc3c2C(C)C)cn(C)c(=O)c1C` (single isomer, unassigned) [Example 259, 4-(4-(6-isopropyl-5-(1,4,5-trimethyl-6-oxo-1,6-dihydropyridin-3-yl)-4H-pyrrolo[3,2-d]thiazol-2-yl)cyclohexyl)piperazin-2-one] the same measures were 23.5 nM, 13.8 nM and over 50000 nM.
